# Results reported in ChEMBL document CHEMBL1201862, “PubChem BioAssay data set” (2004).
#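 Grown in 96-well plates, cells were treated for 48 hours with each compound at five concentrations. Insufficient inhibition: endpoint recorded as highest concentration tested. At the GI50, growth is halved.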 Calls of active or inactive are those of the source. Rule as the data show it: active = GI50 up to about 1.1 µM and inactive = higher.
# Tests used:
# Test in all cases: inhibition of tumour cell growth, NCI panel, 48 h
# 786-0 = system: 786-0
# A498 = system: A498
# A549 = system: A549
# ACHN = system: ACHN
# BT-549 = system: BT-549
# CAKI-1 = system: CAKI-1
# CCRF-CEM = system: CCRF-CEM
# COLO 205 = system: COLO 205
# DU-145 = system: DU-145
# EKVX = system: EKVX
# HCC 2998 = system: HCC 2998
# HCT-116 = system: HCT-116
# HCT-15 = system: HCT-15
# HOP-62 = system: HOP-62
# HOP-92 = system: HOP-92
# HT-29 = system: HT-29
# Hs-578T = system: Hs-578T
# IGROV-1 = system: IGROV-1
# K562 = system: K562
# KM12 = system: KM12
# M14 = system: M14
# MCF7 = system: MCF7
# MDA-MB-231 = system: MDA-MB-231
# MDA-MB-435 = system: MDA-MB-435
# MDA-N = system: MDA-N
# MOLT-4 = system: MOLT-4
# Malme-3M = system: Malme-3M
# NCI-H226 = system: NCI-H226
# NCI-H23 = system: NCI-H23
# NCI-H460 = system: NCI-H460
# NCI-H522 = system: NCI-H522
# NCI/ADR-RES = system: NCI/ADR-RES
# OVCAR-3 = system: OVCAR-3
# OVCAR-4 = system: OVCAR-4
# OVCAR-8 = system: OVCAR-8
# PC-3 = system: PC-3
# RXF 393 = system: RXF 393
# SF-268 = system: SF-268
# SF-295 = system: SF-295
# SF-539 = system: SF-539
# SK-MEL-28 = system: SK-MEL-28
# SK-MEL-5 = system: SK-MEL-5
# SK-OV-3 = system: SK-OV-3
# SN12C = system: SN12C
# SNB-19 = system: SNB-19
# SNB-75 = system: SNB-75
# SR = system: SR
# SW-620 = system: SW-620
# T47D = system: T47D
# TK-10 = system: TK-10
# U-251 = system: U-251
# UACC-257 = system: UACC-257
# UACC-62 = system: UACC-62
# UO-31 = system: UO-31
# LOX IMVI = system: LOX IMVI
# OVCAR-5 = system: OVCAR-5
# RPMI-8226 = system: RPMI-8226
# SK-MEL-2 = system: SK-MEL-2
# HL-60 = system: HL-60
smiles,measurement,setting,value
CCN(CC)CCNc1ccc2ncn3c4c(OC)ccc(OC)c4c(=O)c1c23,GI50,786-0,11.5 µM (inactive)
same,GI50,A498,93.3 µM (inactive)
same,GI50,A549,22.5 µM (inactive)
same,GI50,ACHN,4.1 µM (inactive)
same,GI50,BT-549,> 10 µM (inactive)
same,GI50,CAKI-1,86.5 µM (inactive)
same,GI50,CCRF-CEM,1.22 µM (inactive)
same,GI50,COLO 205,0.841 µM (active)
same,GI50,DU-145,12.9 µM (inactive)
same,GI50,EKVX,15.3 µM (inactive)
same,GI50,HCC 2998,15.3 µM (inactive)
same,GI50,HCT-116,0.587 µM (active)
same,GI50,HCT-15,16 µM
same,GI50,HOP-62,> 100 µM (inactive)
same,GI50,HOP-92,11.2 µM (inactive)
same,GI50,HT-29,> 10 µM (inactive)
same,GI50,Hs-578T,> 10 µM (inactive)
same,GI50,IGROV-1,> 10 µM (inactive)
same,GI50,K562,10.4 µM (inactive)
same,GI50,KM12,9.16 µM (inactive)
same,GI50,M14,18.7 µM (inactive)
same,GI50,MCF7,3.57 µM (inactive)
same,GI50,MDA-MB-231,12 µM (inactive)
same,GI50,MDA-MB-435,> 10 µM (inactive)
same,GI50,MDA-N,10.8 µM (inactive)
same,GI50,MOLT-4,1.45 µM (inactive)
same,GI50,Malme-3M,23.8 µM (inactive)
same,GI50,NCI-H226,90.8 µM (inactive)
same,GI50,NCI-H23,22.6 µM (inactive)
same,GI50,NCI-H460,4.4 µM (inactive)
same,GI50,NCI-H522,15.7 µM (inactive)
same,GI50,NCI/ADR-RES,5.6 µM (inactive)
same,GI50,OVCAR-3,30.3 µM (inactive)
same,GI50,OVCAR-4,6.11 µM (inactive)
same,GI50,OVCAR-8,10.8 µM (inactive)
same,GI50,PC-3,> 10 µM (inactive)
same,GI50,RXF 393,1.71 µM (inactive)
same,GI50,SF-268,3.24 µM (inactive)
same,GI50,SF-295,13.3 µM (inactive)
same,GI50,SF-539,20.8 µM (inactive)
same,GI50,SK-MEL-28,21.2 µM (inactive)
same,GI50,SK-MEL-5,17.2 µM (inactive)
same,GI50,SK-OV-3,19.1 µM (inactive)
same,GI50,SN12C,> 10 µM (inactive)
same,GI50,SNB-19,20 µM (inactive)
same,GI50,SNB-75,10.6 µM (inactive)
same,GI50,SR,3.72 µM (inactive)
same,GI50,SW-620,0.853 µM (active)
same,GI50,T47D,> 100 µM (inactive)
same,GI50,TK-10,> 100 µM (inactive)
same,GI50,U-251,15.5 µM (inactive)
same,GI50,UACC-257,> 100 µM (inactive)
same,GI50,UACC-62,22.6 µM (inactive)
same,GI50,UO-31,> 100 µM (inactive)
O=C(Cc1ccccc1)NCCCN(CCCCN(CCCNC(=O)Cc1ccccc1)C(=O)OCc1ccccc1)C(=O)OCc1ccccc1,GI50,786-0,> 100 µM (inactive)
same,GI50,A498,> 75.9 µM (inactive)
same,GI50,A549,> 43 µM (inactive)
same,GI50,ACHN,> 21.6 µM (inactive)
same,GI50,BT-549,> 100 µM (inactive)
same,GI50,CAKI-1,4.74 µM (inactive)
same,GI50,CCRF-CEM,> 20.3 µM (inactive)
same,GI50,COLO 205,6.07 µM (inactive)
same,GI50,DU-145,> 100 µM (inactive)
same,GI50,EKVX,> 49.8 µM (inactive)
same,GI50,HCC 2998,> 38.1 µM (inactive)
same,GI50,HCT-116,> 100 µM (inactive)
same,GI50,HCT-15,> 43.4 µM
same,GI50,HOP-62,> 100 µM (inactive)
same,GI50,HOP-92,> 25.2 µM (inactive)
same,GI50,HT-29,> 24.8 µM (inactive)
same,GI50,Hs-578T,> 100 µM (inactive)
same,GI50,IGROV-1,> 100 µM (inactive)
same,GI50,K562,7.24 µM (inactive)
same,GI50,KM12,> 100 µM (inactive)
same,GI50,LOX IMVI,> 100 µM (inactive)
same,GI50,M14,> 100 µM (inactive)
same,GI50,MCF7,> 81.1 µM (inactive)
same,GI50,MDA-MB-231,> 100 µM (inactive)
same,GI50,MDA-MB-435,> 100 µM (inactive)
same,GI50,MDA-N,> 100 µM (inactive)
same,GI50,MOLT-4,4.49 µM (inactive)
same,GI50,NCI-H226,> 100 µM (inactive)
same,GI50,NCI-H23,> 100 µM (inactive)
same,GI50,NCI-H460,> 19.9 µM (inactive)
same,GI50,NCI-H522,1.42 µM (inactive)
same,GI50,NCI/ADR-RES,> 100 µM (inactive)
same,GI50,OVCAR-3,> 100 µM (inactive)
same,GI50,OVCAR-5,> 100 µM (inactive)
same,GI50,OVCAR-8,> 100 µM (inactive)
same,GI50,PC-3,7.45 µM (inactive)
same,GI50,RPMI-8226,4.19 µM (inactive)
same,GI50,RXF 393,> 31.4 µM (inactive)
same,GI50,SF-268,> 100 µM (inactive)
same,GI50,SF-295,> 100 µM (inactive)
same,GI50,SF-539,> 100 µM (inactive)
same,GI50,SK-MEL-28,> 100 µM (inactive)
same,GI50,SK-MEL-2,> 100 µM (inactive)
same,GI50,SK-OV-3,> 100 µM (inactive)
same,GI50,SN12C,> 100 µM (inactive)
same,GI50,SR,30.4 µM (inactive)
same,GI50,SW-620,> 100 µM (inactive)
same,GI50,T47D,> 36.4 µM (inactive)
same,GI50,TK-10,> 100 µM (inactive)
same,GI50,U-251,> 100 µM (inactive)
same,GI50,UACC-257,> 100 µM (inactive)
same,GI50,UACC-62,> 100 µM (inactive)
same,GI50,UO-31,1.66 µM (inactive)
Cc1cc(/N=C/c2ccc(F)cc2)n(-c2ccccc2)n1,GI50,786-0,> 100 µM (inactive)
same,GI50,A498,42.3 µM (inactive)
same,GI50,A549,92 µM (inactive)
same,GI50,ACHN,> 100 µM (inactive)
same,GI50,BT-549,85.1 µM (inactive)
same,GI50,CAKI-1,> 100 µM (inactive)
same,GI50,CCRF-CEM,34.6 µM (inactive)
same,GI50,COLO 205,37.1 µM (inactive)
same,GI50,DU-145,> 100 µM (inactive)
same,GI50,EKVX,66.7 µM (inactive)
same,GI50,HCT-116,> 100 µM (inactive)
same,GI50,HCT-15,48.2 µM
same,GI50,HL-60,30.3 µM (inactive)
same,GI50,HOP-62,> 100 µM (inactive)
same,GI50,HOP-92,89.1 µM (inactive)
same,GI50,HT-29,48.9 µM (inactive)
same,GI50,Hs-578T,> 100 µM (inactive)
same,GI50,IGROV-1,84.3 µM (inactive)
same,GI50,K562,59.3 µM (inactive)
same,GI50,KM12,51.8 µM (inactive)
same,GI50,LOX IMVI,> 100 µM (inactive)
same,GI50,M14,> 100 µM (inactive)
same,GI50,MCF7,46.7 µM (inactive)
same,GI50,MDA-MB-231,> 100 µM (inactive)
same,GI50,MDA-MB-435,74.1 µM (inactive)
same,GI50,MDA-N,73.3 µM (inactive)
same,GI50,MOLT-4,35.3 µM (inactive)
same,GI50,Malme-3M,75.5 µM (inactive)
same,GI50,NCI-H226,> 100 µM (inactive)
same,GI50,NCI-H23,82.2 µM (inactive)
same,GI50,NCI-H460,41.5 µM (inactive)
same,GI50,NCI-H522,39.1 µM (inactive)
same,GI50,NCI/ADR-RES,> 100 µM (inactive)
same,GI50,OVCAR-3,> 100 µM (inactive)
same,GI50,OVCAR-4,75.7 µM (inactive)
same,GI50,OVCAR-5,> 100 µM (inactive)
same,GI50,OVCAR-8,> 100 µM (inactive)
same,GI50,PC-3,> 100 µM (inactive)
same,GI50,RPMI-8226,21.3 µM (inactive)
same,GI50,RXF 393,47.9 µM (inactive)
same,GI50,SF-268,> 100 µM (inactive)
same,GI50,SF-295,57.5 µM (inactive)
same,GI50,SF-539,> 100 µM (inactive)
same,GI50,SK-MEL-28,> 100 µM (inactive)
same,GI50,SK-MEL-2,> 100 µM (inactive)
same,GI50,SK-MEL-5,52.5 µM (inactive)
same,GI50,SK-OV-3,> 100 µM (inactive)
same,GI50,SN12C,57.3 µM (inactive)
same,GI50,SNB-19,> 100 µM (inactive)
same,GI50,SNB-75,56.1 µM (inactive)
same,GI50,SR,35.4 µM (inactive)
same,GI50,SW-620,> 100 µM (inactive)
same,GI50,T47D,27.2 µM (inactive)
same,GI50,TK-10,57 µM (inactive)
same,GI50,U-251,> 100 µM (inactive)
same,GI50,UACC-257,50.1 µM (inactive)
same,GI50,UACC-62,> 100 µM (inactive)
same,GI50,UO-31,> 100 µM (inactive)
